Laboratory results as given in US20190049429A1, “METHOD FOR OBSERVING DYNAMICS OF SWEAT GLANDS” (MANDOM CORPORATION, priority 2016, published 2019).

Legend:
Assay type in all cases: cell-based, human
[1] = test system: isolated whole sweat glands; test: Evaluation of test substance for perspiration-controlling action: moving distance of cells in whole sweat glands stimulated with pilocarpine; settings: atropine pre-incubated 30 minutes, pilocarpine 10 mM after 10 minutes
Protocol: Whole sweat glands were observed by time-lapse imaging in the same manner as in Example 1 except that Krebs-Ringer solution was used in place of PBS, that atropine as a test substance was added onto the whole sweat glands before observing the whole sweat glands by using time-lapse imaging and thereafter the whole sweat glands were incubated for 30 minutes, and that pilocarpine was added onto the whole sweat glands so as to have a concentration of 10 mM after 10 minutes passed from the initiation of the observation (Experiment No. 1). Next, cells E, F, G, H and I were selected from the image of FIG. 21, and a moving distance of each cell was examined in the same manner as in Example 1. Next, the average value of moving distances of cells was obtained by using the moving distance of each cell. The scale bar in FIG. 21 means 50 μm.
In addition, whole sweat glands were observed by time-lapse imaging in the same manner as in Example 1 except that Krebs-Ringer's solution was used in place of PBS and that pilocarpine was added onto the whole sweat glands so as to have a concentration of 10 mM after 10 minutes passed from the initiation of the observation (Experiment No. 2). Next, cells J, K, L, M and N were selected from the image of FIG. 22, and a moving distance of each cell was examined in the same manner as in Example 1. […]

[2] = test system: isolated whole sweat glands; test: Time-lapse imaging of stained isolated whole sweat glands held with collagen in PBS: moving distance of cells after stimulant; settings: pilocarpine 10 mM added 60 seconds after initiation of observation, when 150 to 300 seconds passed from initiation, FIG. 5
Protocol: As skin tissues, skin tissues which were refrigerated immediately after removal from living donors and stored at 4° C. for 15 hours were used. The skin tissues were immersed in a phosphate-buffered saline containing 10 μM Neutral Red, to incorporate Neutral Red into sweat glands included in the skin tissues. Next, the dermis of each of the skin tissues was finely cut to obtain dermal segments. Whole sweat glands were collected from the dermal segments by using tweezers under an optical microscope. […]
After 5 minutes passed from the addition of the buffer, the observation with the time-lapse imaging of the whole sweat glands on the glass bottom dish was started by using a confocal laser scanning microscope for biological use (inverted microscope (manufactured by Olympus Corporation, trade name: IX-83) equipped with FV 1200 manufactured by Olympus Corporation)). At that time, the whole sweat glands were visualized by detecting fluorescence derived from the nuclear staining reagent bound to the nucleus and fluorescence derived from the cytoskeleton-staining reagent bound to the cytoskeleton. […]
wherein n is the same as mentioned above. […] The actual moving distance (μm) of the cell was calculated by multiplying the movement value by the size per coordinate 1.

[3] = test system: isolated whole sweat glands; test: Time-lapse imaging of whole sweat glands in Krebs-Ringer solution: outer and inner diameter index values of sweat gland tubule after stimulant; settings: pilocarpine 10 mM added after 10 minutes
Protocol: Whole sweat glands were observed by time-lapse imaging in the same manner as in Example 1 except that Krebs-Ringer solution (composition: 125 mM sodium chloride, 5 mM potassium chloride, 1 mM calcium chloride, 1. 2 mM magnesium chloride, 25 mM sodium bicarbonate, 1.2 mM dihydrogen phosphate sodium, 5 mM glucose and 10 mg/100 mL of fatty acid-free bovine serum albumin, pH 7.48) was used in place of PBS. After 10 minutes passed from the initiation of the observation, pilocarpine which was a sweat gland contraction-inducing reagent (stimulant) was added to the whole sweat glands so as to have a concentration of 10 mM, and thereafter the observation of the whole sweat glands using the time-lapse imaging was continued. Next, changes of each outer diameter index values at the determined sites (A) to (C) shown in FIG. 17 with the passage of time were obtained by using the image analysis software (manufactured by BITPLANE, trade name: Imaris). The outer diameter index value was obtained by stacking data in the Z direction and performing calculation in which the image analysis software was used in the “Surface” mode under the following setting conditions: In FIG. 17, the determined site (A) is a portion enveloped by myoepithelial cells. The determined site (B) and the determined site (C) are portions which are not enveloped by myoepithelial cells, and which are flow pathways for sweat. Further, the scale bar in FIG. 17 means 50 μm. After cancelling the stacking of the data in the Z direction, changes of an inner diameter index value at the determined sites (A) to (C) shown in FIG. 18 were calculated with one kind of data in the Z direction. The internal diameter index value was obtained by preparing the surface model, then extracting the components included in the surface model with Mask tool included in an image analysis software and performing calculation with the image analysis software under the following setting conditions: […]

[4] = site not enveloped by myoepithelial cells, FIG. 19
[5] = site not enveloped by myoepithelial cells, FIG. 20

Structure (SMILES)	perspiration-controlling action judged from sweat gland dynamics [1]	changes of a moving distance of each cell included in the sweat glands with the passage of time, compared with sweat glands not contacted with atropine ([1]; Krebs-Ringer solution, FIG. 23 vs FIG. 24)	moving distances of the cell A, the cell B, the cell C, and the cell D [2]	outer diameter index value at the determined site (A) ([3]; site enveloped by myoepithelial cells, FIG. 19)	inner diameter index value at the determined site (A) ([3]; site enveloped by myoepithelial cells, FIG. 20)	outer diameter index value at the determined site (B) [3, 4]	outer diameter index value at the determined site (C) [3, 4]	diameter index value at the determined site (B), results of FIG. 20 [3, 5]	diameter index value at the determined site (C), results of FIG. 20 [3, 5]
CN1[C@@H]2CC[C@H]1C[C@@H](OC(=O)C(CO)c1ccccc1)C2 (stereo partly drawn) [atropine]	has an antiperspirant action	smaller	–	–	–	–	–	–	–
CC[C@@H]1C(=O)OC[C@@H]1Cc1cncn1C [pilocarpine]	–	–	become larger	decreases after stimulating with the stimulant and then increases	greatly decreases after stimulating with the stimulant and then increases	increases after stimulating with the stimulant	hardly changes after stimulating with the stimulant	hardly changes immediately after stimulating with the stimulant, but the outer diameter index value increases when passing a certain time	hardly changes immediately after stimulating with the stimulant, but the outer diameter index value increases when passing a certain time
